# Experimental data published in patent US6759520B1, “Chimeric analgesic peptides” (priority 1999, dated 2004).
# Experiments:
# Sprague Dawley rats [1] = test: Tail flick test after intrathecal administration; assay type: in vivo, rat; conditions: for change in analgesia, antagonist alone: control experiment, p>0.05
# Description: (§1) ESP7 was tested clinically in rats to determine analgesic effect and tolerance. The classical tail flick test was used to measure pain response and thermal pain was mimicked using a heat source. This system was controlled using standard opioids. The drug was administered with cyclodextran to increase solubility of the peptide in an aqueous solution.
# Adult male Sprague Dawley rats (200-250 g) were implanted with chronic indwelling intrathecal catheters using a modified protocol of Yaksh and Rudy, Physiol. Behav., 17: 1031-1036 (1976). […] The rats were anesthetized throughout the surgery with 5.0% isoflurane. The catheter was inserted through the alanto-occipital membrane and into the intrathecal space using a guide wire. Sutures were used to secure the placement of the catheter. The rats were allowed to recover from surgery for 3-4 days and any rats with neurological impairment were not used for analgesic measurements. Rats were housed separately in a 12 hr light-dark cycle with free access to food and water. During their recovery from surgery, rats were habituated to the laboratory environment and analgesic testing apparatus.
# For measurement of the thermal anti-nociceptive properties of the peptides of interest, the tail flick test was employed. Rats were first habituated to the tail flick chamber. During testing, the rats were placed in the chamber and a light source, which generated heat, was directed at their tail. The latency to remove the tail was recorded. The baseline latency was approximately 3.5 sec and the cutoff latency was 10 sec to avoid tissue damage. Three measurements were made at each pre- and post-treatment time point and the results were averaged. Responses were expressed as % maximum possible effect: […]
# Rats were given doses of 1.0 μg (FIG. 5), 0.2 μg (FIG. 6), and 0.05 μg (FIG. 7) of ESP7. The desired concentration of the compound (in 10 μl) was injected into the catheter followed by 10 μl saline flush to fill the dead volume. ESP7 was combined with two molecules of cyclodextrin (ESP7+2CD) to increase solubility. […]
# NK1 receptor = target: T1, NK1 receptor (Rattus norvegicus, UniProt P14600); test: SP (NK1) receptor binding assay, [125I]BH-SP competition, crude rat brain plasma membranes
# T1 construct: The same procedure was followed for the SP receptor except the wash with NaCl was eliminated; from tissue; host or cells: rat brain (crude plasma membranes)
# rats = test: Tail flick test after intraperitoneal administration; assay type: in vivo, rat; conditions: 1 mg intraperitoneal
# Description: as §1
# ESP7 was administered intraperitoneally in order to assess the effectiveness of ESP7 systemically. The tail flick assay was used to measure analgesia as described above in Example 2.1. Briefly, the rats were first habituated to the tail flick chamber. During testing, the rats were placed in the chamber and a light source, which generated heat, was directed at their tail. The latency to remove the tail was recorded. The baseline latency was approximately 3.5 sec and the cutoff latency was 10 sec to avoid tissue damage. Three measurements were made at each pre- and post-treatment time point and the results were averaged. Responses were expressed as % maximum possible effect (MPE): [formula]
# μ receptor = target: T2, μ receptor (Rattus norvegicus, UniProt P33535); test: μ receptor binding assay, [3H]DAMGO competition, crude rat brain plasma membranes
# T2 construct: frozen rat brains (−80° C.) were homogenized in 40 volumes of standard Tris buffer; from tissue; host or cells: rat brain (crude plasma membranes)
# Description: For binding assays to opioid receptors, frozen rat brains (−80° C.) were homogenized in 40 volumes of standard Tris buffer (50 mM Tris HCl (pH 7.4), 0.2 mg/ml BSA, 2.5 mM EDTA, 40 μg/ml bacitracin, 30 μg/ml bestatin and 5 mM MgCl2) and centrifuged at 15,000×g for 20 minutes. 100 mM NaCl was added to the buffer, in order to remove endogenous ligands, and the centrifugation was repeated. After a wash with standard buffer, the membrane preparation was finally resuspended in 10 volumes of incubation buffer (standard buffer with 4 μg/ml leupeptin and 2 μg/ml chymostatin). […] The brain homogenates were used on the day of preparation.
# Binding assays for the μ receptor were performed at 4° C. for 90 minutes, as described in Zadina et al., Life Sci, 55: 461-466 (1994). […] After incubation the samples were filtered on a Brandell-Harvester using an appropriate GF/B filter soaked in 50 mM Tris HCl (pH 7.4) and 0.5% PEI. Scintillation fluid was added to the filters in order to solubilize the membranes, and a beta-counter was used to quantify radioactivity.
# Sprague Dawley rats [2] = test: Tail flick test after intracerebroventricular administration; assay type: in vivo, rat; conditions: 1.0 μg intracerebroventricular; data not shown
# Description: as §1
# Adult male Sprague Dawley rats weighing 200-250 g were used. Before surgery, the rats were anesthesized with 0.2-0.3 mL of xylazine (10%) and ketamine (90%). Rats were positioned in a stereotaxic apparatus and the bregma was located. To reach the lateral ventricle, a hole was drilled 0.8 mm caudal and 1.4-1.5 mm left or right of the bregma. The catheter was inserted 4.5 mm deep into the brain and 4.0 cm of polyethylene tubing was connected to the end to the catheter. Screws and dental cement were used to secure the catheter in place. After suturing the skin, the rats were allowed to recover from surgery for 4-5 days. Each rat was housed separately in a 12 hr light-dark cycle with free access to food and water. Rats with any neurological problems were not used in the analgesic testing.
# The tail flick assay was used to measure analgesia as described above in Example 2.1. Briefly, the rats were first habituated to the tail flick chamber. […] The latency to remove the tail was recorded. […] Responses were expressed as % maximum possible effect (MPE): [formula]
# T2 sequence (P33535 whole entry): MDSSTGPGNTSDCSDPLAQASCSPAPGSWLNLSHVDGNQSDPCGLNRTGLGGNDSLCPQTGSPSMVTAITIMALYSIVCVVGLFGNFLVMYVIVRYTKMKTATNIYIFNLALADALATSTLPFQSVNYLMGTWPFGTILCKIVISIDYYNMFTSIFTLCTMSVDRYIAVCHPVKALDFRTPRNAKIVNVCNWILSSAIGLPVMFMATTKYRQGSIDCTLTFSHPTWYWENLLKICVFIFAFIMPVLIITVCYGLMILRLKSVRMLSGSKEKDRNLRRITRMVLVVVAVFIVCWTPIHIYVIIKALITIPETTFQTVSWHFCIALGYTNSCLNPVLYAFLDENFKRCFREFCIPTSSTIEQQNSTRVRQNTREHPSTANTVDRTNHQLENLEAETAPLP
# T1 sequence (P14600 whole entry): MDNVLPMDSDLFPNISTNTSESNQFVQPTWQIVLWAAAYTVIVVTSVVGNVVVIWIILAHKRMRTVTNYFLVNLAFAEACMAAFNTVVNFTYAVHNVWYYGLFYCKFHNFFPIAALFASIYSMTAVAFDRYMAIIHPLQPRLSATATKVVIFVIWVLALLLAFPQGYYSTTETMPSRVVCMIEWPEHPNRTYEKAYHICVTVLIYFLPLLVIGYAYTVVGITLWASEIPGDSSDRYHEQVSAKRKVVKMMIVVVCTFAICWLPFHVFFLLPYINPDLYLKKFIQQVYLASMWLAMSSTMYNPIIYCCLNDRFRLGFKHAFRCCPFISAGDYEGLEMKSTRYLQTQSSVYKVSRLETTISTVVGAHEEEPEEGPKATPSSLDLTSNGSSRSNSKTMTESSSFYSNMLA
compound,measurement,setting,value
COc1ccccc1CC(=N)N1C[C@@H]2C(=O)CCC(c3ccccc3)(c3ccccc3)[C@@H]2C1 [RP67580],"change in analgesia, antagonist alone",Sprague Dawley rats [1],no effect on the level of analgesia
O=C1CC[C@@]2(O)[C@H]3Cc4ccc(O)c5c4[C@@]2(CCN3CC2CC2)[C@H]1O5 [naltrexone],"change in analgesia, antagonist alone",Sprague Dawley rats [1],produced no change in analgesia
same,hyperalgesia when naltrexone is given with ESP7+2CD,Sprague Dawley rats [1]; naltrexone with 0.2 μg and 1.0 μg ESP7+2CD intrathecal,produced some hyperalgesia
"H-YPFFGLM-NH2 [ESP7, Tyr-Pro-Phe-Phe-Gly-Leu-Met-NH2]",Kd,NK1 receptor,~200 nM
same,"analgesia (tail flick, % MPE)",rats,produced analgesia as seen with intrathecal administration
same,Kd,μ receptor,~300 nM
same,"analgesia (tail flick, % MPE)",Sprague Dawley rats [2],produced analgesia
